Experimental data reported in ChEMBL document CHEMBL1201862, “PubChem BioAssay data set” (2004).
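Exposure lasted 48 hours, with cells grown in 96-well plates and compounds tested at five concentrations. GI50 is the concentration that inhibits growth by half.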 Active and inactive are the calls of the source. Rule as the data show it: active = GI50 up to about 1.1 µM and inactive = higher.

Assays:
Experiment in all cases: growth of human tumour cells (NCI), 48 h
DMS-273 = test system: DMS-273
HOP-18 = test system: HOP-18
KM-20L2 = test system: KM-20L2
LXFL 529 = test system: LXFL 529
M19-MEL = test system: M19-MEL
SNB-78 = test system: SNB-78
XF498 = test system: XF498
DMS-114 = test system: DMS-114

Measured: GI50

COc1ccc2c(c1)CCc1c-2nc2cc3c(cc2c1O)OCO3
inactive: DMS-273 > 100 µM | HOP-18 > 100 µM | KM-20L2 > 100 µM | LXFL 529 > 100 µM | M19-MEL > 100 µM | SNB-78 > 100 µM | XF498 > 100 µM

Cc1cccc2c1N(C(=O)/C=C\C(=O)O)C(c1c(C)[nH]c3ccccc13)C2 (stereo not given)
inactive: DMS-114 19.9 µM | KM-20L2 > 100 µM | LXFL 529 15.3 µM | M19-MEL 22.7 µM | SNB-78 31.2 µM | XF498 21.9 µM

COc1cc(Nc2cnc3ccc(C(F)(F)F)cc3n2)cc(OC)c1OC
inactive: DMS-273 25.5 µM | HOP-18 > 100 µM | KM-20L2 3.79 µM | LXFL 529 27.4 µM | M19-MEL 13.6 µM | SNB-78 > 100 µM

O=C(NC12CC3CC(CC(C3)C1)C2)C(=O)c1c[nH]c2ccc(Br)cc12
inactive: DMS-114 65.9 µM | DMS-273 4.54 µM | HOP-18 19.1 µM | KM-20L2 4.54 µM | LXFL 529 15.5 µM | SNB-78 35.7 µM

CC1CCSC(N(C(=O)N(C)c2ccccc2)c2ccccc2)=N1 (stereo not given)
inactive: DMS-114 > 100 µM | DMS-273 > 100 µM | KM-20L2 > 100 µM | LXFL 529 > 100 µM | M19-MEL > 100 µM | SNB-78 > 100 µM | XF498 > 100 µM

NC(=O)NC1C(C(=O)O)N(Cc2ccccc2)C(=O)N1Cc1ccccc1 (stereo not given)
inactive: DMS-114 > 100 µM | KM-20L2 > 100 µM | LXFL 529 > 100 µM | M19-MEL > 100 µM | SNB-78 > 100 µM | XF498 > 100 µM

CSc1nc(NC2OC(COC(C)=O)C(OC(C)=O)C(OC(C)=O)C2OC(C)=O)c(-c2csc(N)n2)c(=O)n1C (stereo not given)
inactive: DMS-114 34.8 µM | HOP-18 16.6 µM | KM-20L2 > 100 µM | LXFL 529 31.7 µM | M19-MEL 47.6 µM | SNB-78 22.4 µM

CN(C)C(=S)/N=c1\ss/c(=N\C(=S)N(C)C)n1-c1ccc(Cl)c(Cl)c1
inactive: DMS-114 > 100 µM | DMS-273 > 100 µM | KM-20L2 > 100 µM | M19-MEL > 100 µM | SNB-78 67.1 µM

O=C(c1ccccn1)c1nc(-c2ccc(Cl)c(Cl)c2)nc2ccc(Cl)cc12
inactive: DMS-114 64.6 µM | DMS-273 32 µM | KM-20L2 > 100 µM | LXFL 529 46.6 µM | M19-MEL 81.1 µM | SNB-78 > 100 µM | XF498 20.8 µM

COC(=O)/C=C/C1C2C3(CCC(C)C12C)OCCS3 (stereo not given)
inactive: DMS-114 > 100 µM | DMS-273 > 100 µM | HOP-18 > 100 µM | KM-20L2 > 100 µM | LXFL 529 > 100 µM | M19-MEL > 100 µM | SNB-78 > 100 µM | XF498 > 100 µM

ONc1ncnc2[nH]cnc12
inactive: DMS-114 > 100 µM | DMS-273 > 100 µM | KM-20L2 > 100 µM | LXFL 529 > 100 µM | M19-MEL > 100 µM | XF498 > 100 µM
